Here are results for 1 compound from US20240335395A1, “COMPOSITIONS AND METHODS FOR PREVENTING AND/OR TREATING DISEASE ASSOCIATED WITH IL-23 EXPRESSION” (ALLSPIM, priority 2021, published 2024).

One experiment deals with IL-23. As to the kind of experiment: IL-23 gene expression in RA-patient synovial cells (RT-qPCR). To be noted: 2 h. The format is cell-based, human. The protocol: Synovial fluid was freshly collected from 20 patients with rheumatoid arthritis (RA) by arthrocentesis. At two hours after treatment or not with 2,4-D, RA-patient synovial cells were directly lysed using TRIzol reagent (Invitrogen, USA) followed by RNA extraction according to the manufacturer's protocol. Finally, RNA was dissolved in 10 μL DEPC-treated water, quantified on a NanoDrop 2000 spectrophotometer (Thermo Scientific Inc., USA), and reverse-transcribed using the Super Script III First-Strand Synthesis System for RT-PCR kit (Thermo Scientific, USA) according to the manufacturer's protocol. PCR was performed in duplicate using SYBR Green qPCR master mix (Takara Biomedical Technology Co., Ltd, Dalian, China) on an ABI 7500 Real-Time PCR System (Thermo, USA). The cycling program was as follows: denaturation at 95° C. for 15 s, 40 cycles of 95° C. for 15 s and extension at 60° C. for 60 s, followed by melt curve generation. The ΔΔCT method was used to quantify relative mRNA levels as described in Example 1 above. The primer sequences specific for human IL-17 genes (hu-IL-17 Forward: 5′-[…]-3′; hu-IL-17 Reverse: 5′-GGCACTTTGCCTCCCAGAT-3′) (SEQ ID NOs 8 and 9, respectively) and IL-23 (see Example 1, above) were used.

Another experiment relates to IL-17. Briefly: IL-17 protein in culture supernatant of RA-patient synovial cells. The format is cell-based, human. The conditions noted are these: increasing concentrations.
The test system of experiment [1] is collagen induced arthritis (CIA) in DBA/1 mice. Briefly: Collagen induced arthritis (CIA) in DBA/1 mice, clinical score. The format is in vivo, mouse. The conditions noted are these: for decrease of mean clinical score compared with control group: as from day 5 post-treatment. From the text: Induction of collagen induced arthritis (CIA) in DBA/1 mice treated with oral 2,4-D. Forty DBA/1 mice (8-12 weeks of age; 20 males and 20 females) were obtained from the Center for Experimental Animals in Beijing, China. The CIA model was established according to the standard Hooke Protocol (accessible at https://hookelabs.com/protocols/cialnduction_DBA1.html). Complete Freund's adjuvant (CFA) and incomplete Freund's adjuvant (IFA) were purchased from Hooke Laboratories. 35 days after immunization, the 40 immunized mice were distributed randomly into 4 groups (10 controls, 10 treated with 0.2 mg daily oral 2,4-D, 10 treated with 1 mg daily oral 2,4-D for 15 days). All animals were followed for an additional 15 days post-treatment.
CIA scoring. CIA is scored on a scale of 0 to 16 (0 to 4 for each paw, adding the scores for all 4 paws), using the following criteria:
Statistical analysis. Data are presented as the mean±SEM for the in vivo animal study. Statistical analysis was performed using Student's t-test (paired 2-sample testing).

The subject of experiment [2] is immune cells from the peritoneal cavity. Briefly: Endometriosis mouse model, immune cell proportions of the peritoneal cavity (flow cytometry). The conditions noted are these: 50 mg/kg/day, 5 times a week, 6 weeks. The format is in vivo. The protocol: Experimental design. Balb/C female mice (10 weeks old) were habituated for 3 days to take a jelly containing (group EDT+2,4D) or not (groups No EDT and EDT+Vehicle) the compound. Surgical implantation of endometrial tissue from syngenic female in peritoneum, was performed at day 0 for groups EDT+Vehicle and EDT+2,4D. […] The vehicle or treatment was then given 5 times a week (50 mg/kg/day) during 6 weeks. Mice were then sacrificed and the peritoneal inflammation was assessed. All the details of the protocol are depicted in FIG. 27. Cytokine measurement in cell-free peritoneal lavage. After mice were euthanized, 5 mL of PBS was injected into the peritoneal cavity and the diluted peritoneal fluid containing the cells was then retrieved. The cells were pelleted by centrifugation at 500×g 4° C. and the supernatant (cell-free peritoneal fluid) was frozen at −80° C. for subsequent cytokine concentration measurement by ELISA. Cytokine concentration was assessed by ELISA kit in the peritoneal fluid (ThermoFisher, Mouse IL-1β, IL6 and TNFalpha Uncoated ELISA). […] The optical density was read with the Clariostar Plus Microplate Reader (BMG LABTECH), through the Clario software. Concentrations were calculated from a standard curve according to the manufacturer's protocol. Phenotypic study of immune cells from the peritoneal cavity assessed by flow cytometry. The pelleted peritoneal cells were resuspended in PBS-2% FBS and counted. One million cells were stained with the following fluorophore-conjugated antibodies purchased from BioLegend: CD45 BV510, CD11b APC-Cy7, CD11c PE, F4/80 BV711, CD80 PE Cy5, CD206 AF647, Ly-6C, PE-Cy7, CCR2 BV786 et CXCR4 BV421, CD45R/B220 PE Texas-Red, CD3E FITC, NK1.1 BV605 and CD69 PerCP-Cy5.5, Zombie-UV. Cells were incubated 20 min in the dark at 4° C., washed with PBS-2% FBS, and were fixed with paraformaldehyde 4% in 5 mL round-bottom polystyrene tubes (Falcon™ 352054). Compensation was adjusted with Ultracomp beads (ThermoFisher). […] All data were collected on LSR Fortessa flow cytometer (BD Bioscience, USA) and analyzed with FlowJo software. […]
On the technique in general: In flow cytometry, cells or beads pass a laser one at a time.

Experiment [3] deals with TPA-induced psoriasis-like skin hyperplasia. Briefly: TPA-induced psoriasis-like skin hyperplasia in BALB/c mice. The format is in vivo, mouse. The protocol: Induction of TPA-induced psoriasis-like skin hyperplasia in mice treated with oral 2,4-D. Forty mice (BALB/c) were purchased from Guangdong Experimental Animal Center. All experiments were approved by the animal ethics committee of Guangzhou University of Chinese Medicine according to Chinese legislation on animal experiments. Mice (n=30) at 8 to 11 weeks of age received a daily topical dose of 15 μg TPA (Sigma) in 200 μl of acetone on the shaved back for day 1 and 4. This dose was empirically determined to cause the most optimal and reproducible skin inflammation in mice (data not shown). Control mice (n=10) were treated similarly with a control vehicle cream (Sigma). See FIG. 9 for an illustrative example of a mouse receiving topical TPA as compared to a control mouse receiving a control vehicle cream. Of the 30 mice that received topical TPA, 20 mice were treated orally with 0.2 mg (n=10) or 1 mg (n=10) 2,4-D daily until day 6. The remaining 10 untreated TPA mice served as a disease control. On day 7, dorsal skin was photographed and fixed in 10% formalin and stained with H&E (Haemotoxylin and Eosin). Epidermal thickness was quantified by Image J software.
Statistical analysis. Data are presented as the mean±SD for the in vivo animal study. Statistical analysis was performed using Student's t-test (paired 2-sample testing).

For `COc1cc(O)c(OC)c(O)c1C(=O)/C=C/c1ccccc1` [2,4-D, 2′,4′-dihydroxy-3′,6′-dimethoxychalcone], the “decrease of IL-23 expression” value in the experiment on IL-23 (1 μg/ml) is on record as 8 fold. For the same compound, the “inhibition of IL-23 expression” value with IL-23 (5 μg/ml) was determined as 65 fold. Moreover, the “concentration of IL-17 protein in the culture supernatant” value with IL-17 is “significantly inhibited”. In experiment [1] (high dose 1 mg per day oral), the “decrease of mean clinical score compared with control group” value is given as 2- to 7 fold. Moreover, in experiment [1] (high dose, 15 days after withdrawal), the “suppression of CIA after withdrawal of treatment” value is on record as “maintained”. Besides, the “decrease of mean clinical score compared with control group” value in experiment [1] (low dose 0.2 mg per day oral) was 2- to 3 fold. Besides, in experiment [2], the “global T cell proportion” value is given as “did not affect”, the “proportion of NK cells amongst the peritoneal cells” value is listed as “significantly reduced” and the proportion of macrophages result is given as “not changed”. Further, in experiment [3] (0.2 mg daily oral), the “thickness of back skin compared with normal skin of control mice” value was “significantly higher” and the “thickness of back skin hyperplasia compared with untreated mice” value is given as “significantly lower”. Further, in experiment [3] (1 mg daily oral), the “thickness of back skin compared with normal skin of control mice” value is reported as “similar” and the “thickness of back skin hyperplasia compared with untreated mice” value was “significantly lower”. Besides, the “dorsal skin compared to mice receiving TPA only” value in experiment [3] (0.2 or 1 mg daily oral) is “improved in a dose-dependent manner”.
